# According to patent publication US20220409578A1, “FUNCTIONALIZED 1,3-BENZENE DIOLS AND THEIR METHOD OF USE FOR THE TREATMENT OF RADIATION DERMATITIS AND OTHER SKIN DISORDERS” (KANNALIFE SCIENCES, INC., priority 2019, published 2022):
# What was measured:
# Type in all cases: cell-based
# [1] = tested on: human dermal microvascular endothelial cells; details: 6 h
# Procedure: Dermal Microvascular endothelial cells of human origin were cultured in vitro using standard conditions (37° C., 95% v/v air, 5% v/v CO2). Human cells were selected as relevant to cell types within skin tissues for this development program. Cell culture methods are commonly used in non-clinical studies conducted on pharmaceutical products. […] Cells were cultured until the third and fourth passage and then acclimated for 24 hours before Nickel induction and dosing procedures. Cell treatment groups were identified using appropriate 96-well plates. The test and control articles were administered to medium containing 1 mM NiSO4 in triplicates. The negative control group received vehicle-only (0.1% v/v final) dose. A fixed 0.1 μL/well from 1000× stock dose volume was administered to 100 μL of media to each cell culture well on Day 2 and incubated for 6 hours at 37 degrees. These cell cultures were also utilized to determine the concentrations of test agent that were non-toxic after 24 hours of incubation. Cell Viability assays were conducted using MTS reduction assays (Promega) diluted 1:5 in DMEM+10% FBS media as specified by the manufacturer. Absorbance was measured at 490 nm using plate reader and cell viability was calculated as a percent of control. This assay was done along with all culture systems that were utilized to study cytokine release. […]
# [2] = tested on: human dermal fibroblast cells; details: 24 h
# Procedure: Primary dermal fibroblasts cells of human origin were cultured in vitro using standard conditions (37° C., 95% v/v air, 5% v/v CO2). Primary dermal fibroblasts from neonatal donor were used from human origin and purchased from Thermo-Fisher (Cat No. […]). […] Cells were cultured until the second passage and then acclimated for 48 hours before UVA irradiation and dosing procedures conducted in 24-well plates. On Day 3, test materials were dosed to cell culture media and pre-incubated for 6 hours. Treatment media was then removed and replaced with phosphate buffer saline (PBS) without test materials and Ultraviolet-A (UV-A) was irradiated at 12.5 J/cm^2 using FS-20/T-12 bulbs (315-400 nm). After UV-A irradiation, PBS was replaced with fresh DMEM medium with test materials and incubated for 18 hours at standard culture conditions. After incubation, culture medium supernatants were harvested and used to measure human IL-6 levels by ELISA method. In vitro dosing route was selected to test the activity of KLS-13022 after pro-inflammatory inducer UV-A irradiation, since isolated human cell culture provide direct activity indication and specific cell-type effects. Human cells were selected as relevant to cell types within skin tissues for this development program. […] Absorbance was measured at 490 nm using plate reader and cell viability was calculated as a percent of control. […]
# IL-1β = IL-1β release from UV-B irradiated human epidermal keratinocytes (ELISA); details: Keratinocyte, light or radiation study; UV-B 25 mJ/cm^2, human epidermal keratinocytes; read-out: IC50 of interleukin-1β inhibition
# Procedure: Normal human epidermal keratinocytes cultures were utilized to measure the release of proinflammatory cytokines and chemokines. Primary epidermal keratinocytes from neonatal donors were used from human origin and purchased from Thermo-Fisher (Cat No. A13401). […] Cells were cultured until the second passage and then acclimated for 48 hours more before UV-B irradiation. Dosing procedures and cell groups were identified using appropriate cell culture 24-well plates. The cell culture incubator was set at 5% v/v CO2 with temperature and humidity maintained at 36-38° C. and 40-70%, respectively. The test and control substances were administered to HKGS-depleted medium in triplicates. A fixed 5 μL/well from 100× stock dose volume was administered to 500 μL of media to each cell culture well on Day 3 and pre-incubated for 6 hours and then post-UVB incubated for 18 hours. […] Media supernatants were harvested and analyzed for TNFα and IL-1β levels by ELISA method. Cytokine levels were assessed from cell culture media supernatants using BD Biosciences OptEIA™ Human TNFα (Cat. No. 555212) and IL-1β (Cat. No. 557953) and ELISA set kit and Reagent Set B (Cat. No. 550534) according the manufacture's specifications. Absorbance was measured at 450 nm using a plate reader and calculated cytokine levels were determined from a standard curve.
# [3] = tested on: human 3D cornea-like EPIOCULAR; experiment: Eye irritation, EPIOCULAR reconstructed cornea-like model, OECD 492 (MTT); details: human, 30 min
# Procedure: Ocular irritancy: The purpose of this study was to evaluate any potential ocular irritation activity of KLS-13022 formulations compared to vehicle-only treated tissues in vitro on human 3D cornea-like EPIOCULAR by topical application according to OECD 492 protocol. Test formulations of KLS-13022 up to 3% w/v in 60:40 ethanol:water vehicle were prepared fresh before use. EPIOCULAR tissues were acclimated before treatments for 24 hours and later treated topically for 30 minutes with KLS-13022 (0.01, 0.1, 0.3 1, 3% w/v). Methyl acetate was used as positive eye irritant control. Tissue viability levels were measured by MTT reduction assay method after material treatments. The levels of tissue viability after each material treatment was compared to vehicle control group to determine any potential ocular irritation activity.
# Average levels of tissue viability were calculated for each treatment group. According to OECD 492 protocol, predicted positive eye irritation activities were determined when obtaining <60% tissue viability. […] Primary cornea-like inserts were used from human origin and purchased from MatTek (Ashland, Mass.). […] Tissues were cultured with standard conditions (37° C., 95% v/v air, 5% v/v CO2) and acclimated for 18+3 hours before dosing procedures.
smiles,measurement,setting,value
"C=C(C)[C@@H]1CCC(C)=C[C@H]1c1c(O)cc(CC2CN(C(=O)OCC)C2)cc1O [KLS-13022, ethyl 3-(3,5-dihydroxy-4-((1R,6R)-3-methyl-6-(prop-1-en-2-yl)cyclohex-2-enyl)benzyl)azetidine-1-carboxylate]",non-toxic concentration range,[1],≤ 12 µM
same,non-toxic concentration range,[2],≤ 1.67 µM
same,toxic concentration,[2],3.3 µM
same,IC50,IL-1β,380 nM
same,tissue viability,[3],≥ 60%
